# In PMC11483378, “Triazole-Based Thiamine Analogues as Inhibitors of Thiamine Pyrophosphate-Dependent Enzymes: 1,3-Dicarboxylate for Metal Binding” (ACS Omega, 2024):
# Several values for one entry are separate records, joined by “and”; a condition that tells them apart may be missing. Identical values can stand only once. Like-named read-outs stand apart in the source and are kept apart here.
# Experiments:
# S. cerevisiae PDC = target: T1, S. cerevisiae PDC (Saccharomyces cerevisiae, UniProt P06169); assay: S. cerevisiae PDC inhibitory activity assay (DCPIP reduction); format: biochemical; conditions: for % Inhibition (5:1): [Compound] = 750 μM, [TPP] = 150 μM; for inhibition at 750 µM: [Compound] = [TPP] = 750 μM, read-out: % Inhibition (1:1)
# T1 construct: purchased Sigma
# T1 sequence (P06169 2-563 limits assumed): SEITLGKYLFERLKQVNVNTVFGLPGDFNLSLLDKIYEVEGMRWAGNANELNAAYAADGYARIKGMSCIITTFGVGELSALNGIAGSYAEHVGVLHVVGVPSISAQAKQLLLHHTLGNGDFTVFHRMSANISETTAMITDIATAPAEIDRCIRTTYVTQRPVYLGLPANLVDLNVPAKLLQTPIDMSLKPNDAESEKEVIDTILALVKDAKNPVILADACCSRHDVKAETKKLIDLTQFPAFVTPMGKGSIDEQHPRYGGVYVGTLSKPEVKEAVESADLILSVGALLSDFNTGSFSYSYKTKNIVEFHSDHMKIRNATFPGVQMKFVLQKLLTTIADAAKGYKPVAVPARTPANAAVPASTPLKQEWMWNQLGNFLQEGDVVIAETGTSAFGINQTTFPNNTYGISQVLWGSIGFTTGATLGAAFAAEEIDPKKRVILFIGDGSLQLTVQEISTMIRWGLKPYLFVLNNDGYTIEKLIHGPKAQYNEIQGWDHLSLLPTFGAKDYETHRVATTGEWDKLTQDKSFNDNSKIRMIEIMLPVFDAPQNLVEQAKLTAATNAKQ
# Method: S. cerevisiae PDC was purchased from Sigma. S. cerevisiae PDC activity was determined by monitoring DCPIP reduction at 600 nm using a microplate reader (CLARIOstar) and conducted as described[5] with some modifications. […] The reaction buffer (50 mM KH2PO4 and 1 mM MgCl2, pH 7) contained TPP at specified concentrations, 0.27 mM DCPIP, and 0.15 mg/mL S. cerevisiae PDC. The reaction mixture was preincubated at 37 °C with the inhibitor for 60 min, and then the reaction was initiated by adding pyruvate to a final concentration of 70 mM. […] Specific activity was calculated using the molar extinction coefficient of DCPIP, 21 mM^–1 cm^–1.[28] The IC50 values were calculated from nonlinear regression curve fitting using GraphPad Prism.
# Enzyme inhibitory activity assays – methods and results (Figures S1-4) […]
# The compound […]
# S. cerevisiae PDC inhibitory activity assay. S. cerevisiae PDC was purchased from Sigma. S. cerevisiae PDC activity was determined by monitoring DCPIP reduction at 600 nm using a microplate reader (CLARIOstar) and conducted as described3 with some modifications. The percentage inhibition of compounds against S. cerevisiae PDC was assayed at 750 μM. The reaction buffer (50 mM KH 2PO4 and 1 mM MgCl2, pH 7) contained TPP at specified concentrations, 0.27 mM DCPIP, and 0.15 mg/ml S. cerevisiae PDC. The reaction mixture was preincubated at 37 °C with the inhibitor for 60 min, then reaction was initiated by adding pyruvate to a final concentration of 70 mM. To determine the IC50, TPP concentration was set at 150 µM with varying inhibitor concentrations. Specific activity was […]
# calculated from non-linear regression curve fitting using GraphPad Prism. […]
# [1] = PAMPA (parallel artificial membrane permeability assay); format: in vitro ADME; conditions: for Papp at 10 h, 500 µM: PAMPA, read-out: PAMPA log Pe (converted); for Papp at 10 h, 500 µM / Fa (fraction absorbed): compounds at 500 µM, 5% DMSO in PBS pH 7.4, 10 hours, room temperature
# Method: PAMPA – methods and results (Table S2)
# PAMPA was carried out in 96-well microtiter filter plates obtained from Millipore as described1 with some modifications. Each well of the filter plate was impregnated with 15 µL of 5% hexadecane dissolved in hexane (i.e. total amount of hexadecane: 0.75 µL) for at least 10 minutes in ventilated environment to allow for complete evaporation of hexane. Donor compartments were filled with 200 µL compound-containing donor solutions of compounds dissolved in 5% DMSO, phosphate buffered saline PBS) and connected to acceptor plate prefilled with buffer (5% DMSO in PBS, pH 7.4). The resulting sandwich was incubated at room temperature under gentle shaking and wrapped in wet paper towels to avoid evaporation. After 10 hours, the sandwich was disassembled and the solutions in the acceptor and donor were transferred to a disposable UV-transparent plate. UV absorption was measured at wavelengths between 220 and 340 nm using a microplate reader (CLARIOstar).
# Compounds were tested at 500 µM. Calibration to determine concentration of compounds were performed with varying compound concentrations in buffer (5% DMSO in PBS).
# The artificial membrane permeability is expressed as fraction absorbed (Fa%)2 or log Pe (log of the effective permeability)1. LogD values at pH 7.4 were calculated using MarvinSketch.
# Fa% = 100 ∙CA ∙VA / CD0 ∙ VD where: CA = final drug concentration in the acceptor well (µM)
# VA = volume in the acceptor well (cm3)
# CD0 = Initial drug concentration in the donor well (µM)
# VD = volume in the donor well (cm3) log P (cm/s) = log -ln 1-CA/Cequilibrium
# S = surface area (cm2), typically 0.268 cm2
# Cequilibrium = theoretical equilibrium concentration = [CD ∙VD+CA ∙VA] / [VD+VA] where: CD = final drug concentration in the donor well (µM)
# CA = final drug concentration in the acceptor well (µM)
# Table S2. Permeability data.
# Compounds Fa (%) PAMPA log Pe (cm/s) cLogD (pH = 7.4)
# [2] = calculated from KM(TPP) 15 µM using [TPP]/IC50 = KM(TPP)/KI
# [3] = read-out: IC50 (μM ± SEM), [TPP] = 150 µM
Compound,IC50 (S. cerevisiae PDC),Ki (S. cerevisiae PDC),% Inhibition (5:1) (S. cerevisiae PDC),inhibition at 750 µM (S. cerevisiae PDC),vs TPP: affinity of the compound relative to that of TPP (= [TPP]/IC50) (S. cerevisiae PDC; [TPP] = 150 µM),membrane permeability in PAMPA (in words) [1],"Papp at 10 h, 500 µM [1]",Fa (fraction absorbed) [1],Ki (S. cerevisiae PDC; [2]),IC50 (S. cerevisiae PDC; [3])
COC(=O)C(CCc1cn(Cc2cnc(C)nc2N)nn1)C(=O)OC [13a],939 ± 167 µM,94 µM,40 ± 4%,< 20%,0.16,membrane-permeable,6.31 ×10⁻⁶ cm/s,39%,,
COC(=O)C(CCCc1cn(Cc2cnc(C)nc2N)nn1)C(=O)OC [13b],713 ± 139 µM,71 µM,52 ± 3%,21 ± 5%,0.21,,6.31 ×10⁻⁶ cm/s,42%,,
Cc1ncc(Cn2cc(CCC(C(=O)[O-])C(=O)[O-])nn2)c(N)n1.[K+].[K+] [14a],,,70 ± 2%,31 ± 3%,0.47,impermeable,0.316 ×10⁻⁶ cm/s,2%,32 µM,319 ± 57 µM
Cc1ncc(Cn2cc(CCCC(C(=O)[O-])C(=O)[O-])nn2)c(N)n1.[K+].[K+] [14b],,,79 ± 3%,42 ± 3%,0.7 and 0.71,membrane-impermeable,0.158 ×10⁻⁶ cm/s,1%,21 µM,211 ± 39 µM
COC(=O)CCCc1cn(Cc2cnc(C)nc2N)nn1 [15a],883 ± 144 µM,88 µM,42 ± 3%,< 20%,0.17,membrane-permeable,5.01 ×10⁻⁶ cm/s,38%,,
COC(=O)CCCCc1cn(Cc2cnc(C)nc2N)nn1 [15b],789 ± 167 µM,79 µM,47 ± 4%,< 20%,0.19,membrane-permeable,6.31 ×10⁻⁶ cm/s,44%,,
Cc1ncc(Cn2cc(CCCC(=O)[O-])nn2)c(N)n1.[K+] [16a],,,55 ± 4%,24 ± 4%,0.26,impermeable,0.398 ×10⁻⁶ cm/s,3%,58 µM,582 ± 88 µM
Cc1ncc(Cn2cc(CCCCC(=O)[O-])nn2)c(N)n1.[K+] [16b],,,60 ± 4%,25 ± 5%,0.30,impermeable,0.398 ×10⁻⁶ cm/s,2%,50 µM,503 ± 76 µM
